Where only a bound is given, the exact number is not on record here.

The target in the first experiment is T1, human GluN1/GluN2B NMDA receptors (Homo sapiens, UniProt Q13224).
T1 construct: expressed in transfected cells
T1 sequence (Q13224 27-1484, other chains not shown): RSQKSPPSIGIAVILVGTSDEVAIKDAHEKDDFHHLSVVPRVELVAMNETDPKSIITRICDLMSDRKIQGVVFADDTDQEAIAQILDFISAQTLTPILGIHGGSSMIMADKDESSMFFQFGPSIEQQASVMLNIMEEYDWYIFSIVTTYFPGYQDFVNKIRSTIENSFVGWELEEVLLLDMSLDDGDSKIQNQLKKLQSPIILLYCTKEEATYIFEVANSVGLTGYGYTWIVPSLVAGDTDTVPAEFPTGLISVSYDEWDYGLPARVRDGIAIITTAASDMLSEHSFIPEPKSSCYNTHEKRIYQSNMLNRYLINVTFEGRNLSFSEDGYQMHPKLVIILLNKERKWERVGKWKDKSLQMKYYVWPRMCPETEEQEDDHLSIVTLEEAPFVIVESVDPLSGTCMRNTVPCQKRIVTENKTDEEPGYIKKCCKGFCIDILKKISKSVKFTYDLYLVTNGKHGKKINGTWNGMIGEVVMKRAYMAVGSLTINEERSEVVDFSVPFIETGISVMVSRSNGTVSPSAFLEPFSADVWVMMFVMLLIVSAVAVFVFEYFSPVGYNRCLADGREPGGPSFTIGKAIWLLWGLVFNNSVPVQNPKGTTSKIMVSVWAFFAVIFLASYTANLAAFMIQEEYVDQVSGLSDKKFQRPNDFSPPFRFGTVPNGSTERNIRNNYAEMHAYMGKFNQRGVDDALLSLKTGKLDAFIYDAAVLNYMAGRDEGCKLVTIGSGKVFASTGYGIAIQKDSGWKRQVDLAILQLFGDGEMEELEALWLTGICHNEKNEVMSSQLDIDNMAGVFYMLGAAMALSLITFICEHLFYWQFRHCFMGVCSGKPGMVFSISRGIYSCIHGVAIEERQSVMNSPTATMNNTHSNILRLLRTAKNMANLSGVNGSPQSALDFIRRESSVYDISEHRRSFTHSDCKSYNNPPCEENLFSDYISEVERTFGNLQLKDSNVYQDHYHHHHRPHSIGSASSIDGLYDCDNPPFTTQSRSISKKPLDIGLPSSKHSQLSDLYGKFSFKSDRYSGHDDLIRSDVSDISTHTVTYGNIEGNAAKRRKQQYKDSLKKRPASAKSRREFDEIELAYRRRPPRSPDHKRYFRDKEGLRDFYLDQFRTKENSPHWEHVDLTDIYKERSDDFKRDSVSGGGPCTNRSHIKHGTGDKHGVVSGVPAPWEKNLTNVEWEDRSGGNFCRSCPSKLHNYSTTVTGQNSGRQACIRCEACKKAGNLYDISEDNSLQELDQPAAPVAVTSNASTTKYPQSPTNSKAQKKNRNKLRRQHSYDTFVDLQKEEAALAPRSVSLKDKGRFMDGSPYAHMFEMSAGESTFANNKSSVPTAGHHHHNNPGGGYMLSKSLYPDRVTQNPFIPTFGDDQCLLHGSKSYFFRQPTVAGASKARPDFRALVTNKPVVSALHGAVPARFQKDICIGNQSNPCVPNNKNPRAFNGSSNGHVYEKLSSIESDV
The experiment in a line: Cell-based calcium flux (FLIPR) assay on cloned human NR1/NR2B ion channels expressed in mammalian cells (standard and HTS buffer variants).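 Further: stable Tet-On inducible cell line, Ca2+ influx triggered by glutamate at about EC40 plus 10 µM glycine, fluorescent dye read-out over 5 min, normalized to control wells.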 The following applies: HTS assay buffer (1.5 mM MgCl2 in dye loading buffer; 150 mM NaCl, 3 mM KCl in assay buffer), human GluN1/GluN2B, read-out: NR2B IC50 (μM) HTS assay.
Consider `O=c1[nH]c2ncc(-c3cc(F)cc(F)c3)cc2n1CC1CC1` [Example 470, 1-(Cyclopropylmethyl)-6-(3,5-difluorophenyl)-3H-imidazo[4,5-b]pyridin-2-one], for which the IC50 was 0.509 µM.
Still for that read-out and setting: as for `CN(C)c1cccc(-c2cnc3[nH]c(=O)n(CC4CC4)c3c2)c1` [Example 473, 1-(Cyclopropylmethyl)-6-[3-(dimethylamino)phenyl]-3H-imidazo[4,5-b]pyridin-2-one], the figure is 15.7 µM.
As for `COc1cccc(-c2cnc3[nH]c(=O)n(CC4CCCO4)c3c2)c1` (stereo not drawn) [Example 475, 6-(3-Methoxyphenyl)-1-(tetrahydrofuran-2-ylmethyl)-3H-imidazo[4,5-b]pyridin-2-one], the IC50 amounted to 0.157 µM.
Still for that read-out and setting: under `COc1ccc(-c2cnc3[nH]c(=O)n(Cc4ccc(C#N)cc4)c3c2)cc1` [Example 476, 4-[[6-(4-Methoxyphenyl)-2-oxo-3H-imidazo[4,5-b]pyridin-1-yl]methyl]benzonitrile] stands 4.53 µM; under `COc1ccc(-c2cnc3[nH]c(=O)n(Cc4cccc(C#N)c4)c3c2)cc1` [Example 477, 3-[[6-(4-Methoxyphenyl)-2-oxo-3H-imidazo[4,5-b]pyridin-1-yl]methyl]benzonitrile], 3.16 µM; under `COc1cc(F)ccc1-c1cnc2[nH]c(=O)n(Cc3cccc(C#N)c3)c2c1` [Example 478, 3-[[6-(4-Fluoro-2-methoxy-phenyl)-2-oxo-3H-imidazo[4,5-b]pyridin-1-yl]methyl]benzonitrile], 3.04 µM.
The same measure, in the same setting: under `N#Cc1cccc(Cn2c(=O)[nH]c3ncc(-c4ccc(F)c(Cl)c4)cc32)c1` [Example 480, 3-[[6-(3-Chloro-4-fluoro-phenyl)-2-oxo-3H-imidazo[4,5-b]pyridin-1-yl]methyl]benzonitrile] stands 4.22 µM; under `N#Cc1ccccc1Cn1c(=O)[nH]c2ncc(-c3ccc(Cl)cc3)cc21` [Example 482, 2-[[6-(4-Chlorophenyl)-2-oxo-3H-imidazo[4,5-b]pyridin-1-yl]methyl]benzonitrile], 1.41 µM.
On to `Cc1cc(F)ccc1-c1cnc2[nH]c(=O)n(Cc3ccccc3C#N)c2c1` [Example 483, 2-[[6-(4-Fluoro-2-methyl-phenyl)-2-oxo-3H-imidazo[4,5-b]pyridin-1-yl]methyl]benzonitrile], for which the half-inhibitory concentration (IC50) was determined as 1.8 µM.
Take `N#Cc1cccc(-c2cnc3[nH]c(=O)n(Cc4ccccc4C#N)c3c2)c1` [Example 486, 2-[[6-(3-Cyanophenyl)-2-oxo-3H-imidazo[4,5-b]pyridin-1-yl]methyl]benzonitrile]: the IC50 was determined as 3.84 µM.
On to `COc1ccc(-c2cnc3[nH]c(=O)n(Cc4ccccc4C#N)c3c2)c(OC)c1` [Example 487, 2-[[6-(2,4-Dimethoxyphenyl)-2-oxo-3H-imidazo[4,5-b]pyridin-1-yl]methyl]benzonitrile], for which the IC50 worked out at 2.57 µM.
`Cc1cc(C)cc(-c2cnc3[nH]c(=O)n(Cc4ccccc4C#N)c3c2)c1` [Example 488, 2-[[6-(3,5-Dimethylphenyl)-2-oxo-3H-imidazo[4,5-b]pyridin-1-yl]methyl]benzonitrile]: the IC50 was 4.95 µM.
For the molecule `CCOc1ccc(F)cc1-c1cnc2[nH]c(=O)n(Cc3ccccc3C#N)c2c1` [Example 489, 2-[[6-(2-Ethoxy-5-fluoro-phenyl)-2-oxo-3H-imidazo[4,5-b]pyridin-1-yl]methyl]benzonitrile], the IC50 worked out at 1.28 µM.
As to `Cc1cc(F)ccc1-c1cnc2[nH]c(=O)n(Cc3ccc(F)cc3)c2c1` [Example 492, 6-(4-Fluoro-2-methyl-phenyl)-1-[(4-fluorophenyl)methyl]-3H-imidazo[4,5-b]pyridin-2-one], the IC50 worked out at 6.12 µM.
Turning to `COc1cccc(-c2cnc3[nH]c(=O)n(Cc4ccc(F)cc4)c3c2)c1OC` [Example 493, 6-(2,3-Dimethoxyphenyl)-1-[(4-fluorophenyl)methyl]-3H-imidazo[4,5-b]pyridin-2-one], the IC50 stood at 1.01 µM.
With `CCOc1ccc(F)cc1-c1cnc2[nH]c(=O)n(Cc3cccc(F)c3)c2c1` [Example 494, 6-(2-Ethoxy-5-fluoro-phenyl)-1-[(3-fluorophenyl)methyl]-3H-imidazo[4,5-b]pyridin-2-one], the 50% inhibitory concentration (IC50) was 5.64 µM.
For the molecule `Cc1cc(C)cc(-c2cnc3[nH]c(=O)n(Cc4cccc(F)c4)c3c2)c1` [Example 495, 6-(3,5-Dimethylphenyl)-1-[(3-fluorophenyl)methyl]-3H-imidazo[4,5-b]pyridin-2-one], the IC50 was 2.81 µM.
As for `COc1ccc(-c2cnc3[nH]c(=O)n(Cc4cccc(F)c4)c3c2)c(OC)c1` [Example 496, 6-(2,4-Dimethoxyphenyl)-1-[(3-fluorophenyl)methyl]-3H-imidazo[4,5-b]pyridin-2-one], the IC50 stood at 2.79 µM.
Consider `CCOc1ccccc1-c1cnc2[nH]c(=O)n(Cc3cccc(F)c3)c2c1` [Example 497, 6-(2-Ethoxyphenyl)-1-[(3-fluorophenyl)methyl]-3H-imidazo[4,5-b]pyridin-2-one], for which the IC50 turned out to be 1.95 µM.
For `COc1cc(F)ccc1-c1cnc2[nH]c(=O)n(Cc3ccc(F)cc3)c2c1` [Example 501, 6-(4-Fluoro-2-methoxy-phenyl)-1-[(4-fluorophenyl)methyl]-3H-imidazo[4,5-b]pyridin-2-one], the IC50 came out at 0.79 µM.
Regarding `O=c1[nH]c2ncc(-c3ccc(F)c(Cl)c3)cc2n1Cc1ccc(F)cc1` [Example 502, 6-(3-Chloro-4-fluoro-phenyl)-1-[(4-fluorophenyl)methyl]-3H-imidazo[4,5-b]pyridin-2-one], the IC50 was 4.86 µM.
Consider `CCOc1ccccc1-c1cnc2[nH]c(=O)n(Cc3ccccc3F)c2c1` [Example 503, 6-(2-Ethoxyphenyl)-1-[(2-fluorophenyl)methyl]-3H-imidazo[4,5-b]pyridin-2-one], for which the half-inhibitory concentration (IC50) was 5.49 µM.
Consider `O=c1[nH]c2ncc(-c3cc(F)cc(F)c3)cc2n1Cc1cccc(Cl)c1` [Example 504, 1-[(3-Chlorophenyl)methyl]-6-(3,5-difluorophenyl)-3H-imidazo[4,5-b]pyridin-2-one], for which the half-inhibitory concentration (IC50) worked out at 4.13 µM.
As to `COc1cccc(Cn2c(=O)[nH]c3ncc(-c4cccnc4)cc32)c1` [Example 506, 1-[(3-Methoxyphenyl)methyl]-6-(3-pyridyl)-3H-imidazo[4,5-b]pyridin-2-one], the IC50 is over 29 µM.
As to `COc1cccc(Cn2c(=O)[nH]c3ncc(-c4cc(C)cs4)cc32)c1` [Example 507, 1-[(3-Methoxyphenyl)methyl]-6-(4-methyl-2-thienyl)-3H-imidazo[4,5-b]pyridin-2-one], the IC50 worked out at 8.1 µM.
The same measure, in the same setting: as for `COc1ccc(Cn2c(=O)[nH]c3ncc(-c4cc(F)cc(F)c4)cc32)cc1` [Example 508, 6-(3,5-Difluorophenyl)-1-[(4-methoxyphenyl)methyl]-3H-imidazo[4,5-b]pyridin-2-one], the figure is 0.463 µM.

The experiment is the same for the next values; noted with them: standard assay buffer (0.5 mM MgCl2 in dye loading buffer; 137 mM NaCl, 4 mM KCl in assay buffer), human GluN1/GluN2B, read-out: NR2B IC50 (μM) standard assay.
Take `COc1ccc(-c2cnc3[nH]c(=O)n(CC4CC4)c3c2)cc1` [Example 471, 1-(Cyclopropylmethyl)-6-(4-methoxyphenyl)-3H-imidazo[4,5-b]pyridin-2-one]: the IC50 came out at 1.8 µM.
As to `O=c1[nH]c2ncc(-c3cccs3)cc2n1CC1CC1` [Example 472, 1-(Cyclopropylmethyl)-6-(2-thienyl)-3H-imidazo[4,5-b]pyridin-2-one], the 50% inhibitory concentration (IC50) was 1.56 µM.
The same measure, in the same setting: under `Cc1cc(C)cc(-c2cnc3[nH]c(=O)n(CC4CC4)c3c2)c1` [Example 474, 1-(Cyclopropylmethyl)-6-(3,5-dimethylphenyl)-3H-imidazo[4,5-b]pyridin-2-one] stands 3.57 µM.
With `Cc1cc(F)ccc1-c1cnc2[nH]c(=O)n(Cc3cccc(C#N)c3)c2c1` [Example 479, 3-[[6-(4-Fluoro-2-methyl-phenyl)-2-oxo-3H-imidazo[4,5-b]pyridin-1-yl]methyl]benzonitrile], the IC50 worked out at 0.778 µM.
`COc1cccc(F)c1-c1cnc2[nH]c(=O)n(Cc3ccccc3C#N)c2c1` [Example 481, 2-[[6-(2-Fluoro-6-methoxy-phenyl)-2-oxo-3H-imidazo[4,5-b]pyridin-1-yl]methyl]benzonitrile]: the IC50 was 2.25 µM.
Take `CCOc1ccccc1-c1cnc2[nH]c(=O)n(Cc3ccccc3C#N)c2c1` [Example 484, 2-[[6-(2-Ethoxyphenyl)-2-oxo-3H-imidazo[4,5-b]pyridin-1-yl]methyl]benzonitrile]: the IC50 was found to be 1.39 µM.
As to `COc1cccc(-c2cnc3[nH]c(=O)n(Cc4ccccc4C#N)c3c2)c1` [Example 485, 2-[[6-(3-Methoxyphenyl)-2-oxo-3H-imidazo[4,5-b]pyridin-1-yl]methyl]benzonitrile], the IC50 was found to be 0.031 µM.
Turning to `COc1cc(F)ccc1-c1cnc2[nH]c(=O)n(Cc3ccccc3C#N)c2c1` [Example 490, 2-[[6-(4-Fluoro-2-methoxy-phenyl)-2-oxo-3H-imidazo[4,5-b]pyridin-1-yl]methyl]benzonitrile], the IC50 was 0.046 µM.
On the same count and under the same terms, under `COc1ccc(-c2cnc3[nH]c(=O)n(Cc4ccccc4C#N)c3c2)cc1F` [Example 491, 2-[[6-(3-Fluoro-4-methoxy-phenyl)-2-oxo-3H-imidazo[4,5-b]pyridin-1-yl]methyl]benzonitrile] stands 0.053 µM.
As for `COc1ccc(-c2cnc3[nH]c(=O)n(Cc4cccc(F)c4)c3c2)cc1C` [Example 498, 1-[(3-Fluorophenyl)methyl]-6-(4-methoxy-3-methyl-phenyl)-3H-imidazo[4,5-b]pyridin-2-one], the IC50 was 2.22 µM.
On to `COc1cc(F)ccc1-c1cnc2[nH]c(=O)n(Cc3cccc(F)c3)c2c1` [Example 499, 6-(4-Fluoro-2-methoxy-phenyl)-1-[(3-fluorophenyl)methyl]-3H-imidazo[4,5-b]pyridin-2-one], for which the IC50 turned out to be 0.09 µM.
The same measure, in the same setting: as for `CN(C)c1cccc(-c2cnc3[nH]c(=O)n(Cc4cccc(F)c4)c3c2)c1` [Example 500, 6-[3-(Dimethylamino)phenyl]-1-[(3-fluorophenyl)methyl]-3H-imidazo[4,5-b]pyridin-2-one], the figure is 6.08 µM.
Regarding `COc1cccc(Cn2c(=O)[nH]c3ncc(-c4ccc(F)cc4OC)cc32)c1` [Example 505, 6-(4-Fluoro-2-methoxy-phenyl)-1-[(3-methoxyphenyl)methyl]-3H-imidazo[4,5-b]pyridin-2-one], the IC50 was 1.64 µM.

As a reminder, the IC50 is the point on the concentration scale where inhibition reaches its midpoint.

Values taken from patent US11759455B2, “Substituted 1H-imidazo[4,5-b]pyridin-2(3H)-ones and their use as GLUN2B receptor modulators” (JANSSEN PHARMACEUTICA NV, priority 2016, dated 2023).
